Test results reported in patent USRE44017E1, “N-acetyl aldosamines, N-acetylamino acids and related N-acetyl compounds and their topical use” (priority 1999, dated 2013).
Several values for one entry are separate records, joined by “and”; a condition that tells them apart may be missing. Identical values can stand only once.

Tests used:
[1] = system: forearm skin; experiment: Skin thickness of treated forearm measured by micrometer calipers; type: in vivo, human; details: for increase in skin thickness: topically twice daily, treated forearm, no change in untreated forearm; for appearance of treated forearm: twice daily, untreated forearm still loose, thin and wrinkled
Method: In one of the studies related to skin changes associated with aging, skin thickness was measured by micrometer calipers as follows: The skin was grasped with a 2×6 cm metal hinge, the internal faces of the hinge were coated with emery cloth to prevent slippage, and manually squeezed to threshold subject discomfort. Combined thickness of two whole-skin layers including thickness of the two hinge leaves was measured with micrometer calipers. Thickness of the two hinge leaves was subtracted to determine the actual thickness of two whole-skin layers. Triplicate measurements on treated site were done and an average number was used for calculation of the skin thickness.

[2] = system: itch / pruritus; experiment: Topical application to itchy skin or scalp lesions of single subjects; type: in vivo, human; details: person
Method: A subject, having an itchy lesion of lichen simplex chronicus on their right lower leg topically applied the above cream to the lesion.
A typical composition suitable for topical use on hair, scalp, nail and skin comprising for example N-acetylamino acid may be formulated as follows. N-Acetyl-DL-proline 2 g was dissolved in 98 ml solution prepared from water 40 ml, ethanol 40 ml and propylene glycol 20 ml. The composition with pH 2.7 contained 2% N-acetyl-DL-proline. A subject, having itchy scalp topically applied the above composition to itchy area of scalp.
N-Acetyl-L-lysine 2 g was dissolved in a 98 ml solution prepared from water 40 ml, ethanol 40 ml and propylene glycol 20 ml. The composition with pH 6.5 contained 2% N-acetyl-L-lysine. A subject, having an oily and pruritic scalp topically applied the above composition to the affected area of the scalp, and the area was dried with warm air to remove excess solvents.
The subject topically applied N-acetyl-DL-proline 5% in oil-in-water cream to the itchy lesions.
A subject with chronic nummular eczema and pruritic dry skin topically applied N-acetyl-DL-proline 5% in solution to itchy skin areas of eczema and dry skin lesions.
A subject, having axillary itch due to use of a conventional antiperspirant topically applied N-acetyl-DL-proline 5% in solution to itchy underarm skin areas.
The subject topically applied N-acetyl-L-glutamine 5% in a solution prepared from water 4 parts, ethanol 4 parts and propylene glycol 2 parts by volume.
The subject topically applied N-acetyl-α-D-glucosamine 5% in a solution prepared from water 4 parts, ethanol 4 parts and propylene glycol 2 parts by volume.

[3] = system: forearm skin (epidermis, papillary dermis); experiment: Biological effects of topically applied N-acetyl compound on skin: test chambers on forearm, punch biopsy, histochemical staining; type: in vivo, human; details: 2% solution in water/propylene glycol, occlusive test chambers renewed twice weekly, five weeks
Method: In order to determine biological effects of a topically applied N-acetyl compound of the instant invention, seven women and one person of ages ranging from 58 to 81 years participated in this study. Topical formulation for the study was N-acetyl-L-cysteine 2% in a solution prepared from water 80 ml and propylene glycol 20 ml. Test sites were 1 cm square sites on extensor surface of forearm, 5 cm from the antecubital crease, a grid pattern formed by Hayes Test Chambers on Hayes adhesive strips. Each test chamber, 1 cm square, contained a square piece of filter paper which was fully moistened with 0.033 ml test solution. Test chambers were impressed on the skin to leave outlines which were marked with Sanford Sharpie permanent marker. Sites were re-marked at each successive application of test solutions. Vehicle control sites were on the opposite forearm. Filter paper of each chamber was saturated with 0.033 ml solution and chambers were fixed in place with the Hayes adhesive tape that held the test and vehicle chambers. […] Punch biopsy specimens, 3 mm or 4 mm in diameter, were secured at the end of the study, and specimens were processed and analyzed. […] Epidermal thickness was measured with Micro Image Analysis System, and the mean thickness was expressed as area of epidermis/horizontal length. The thickness of papillary dermis (upper dermis) was also measured.

[4] = ordinary storage conditions; results in a malodorous smell; cited from earlier work
[5] = system: photodamaged / photoaged skin; details: cited from earlier work
[6] = system: xerosis and dry skin on lower legs; experiment: Topical treatment of xerosis and dry skin; type: in vivo, human; details: 5% cream, twice daily, one week, subject
Excerpt: A subject who had xerosis and dry skin on lower legs topically applied twice daily 5% N-acetyl-glucosamine cream for one week. After a few days of topical treatment, the skin became less rough and scaly, and felt smooth.

[7] = system: adolescent acne with multiple papules and pustules on face; experiment: Topical treatment of acne; type: in vivo, human; details: 5% solution, twice daily, after a few days, subject
Excerpt: A subject who had adolescent acne with multiple papules and pustules on their face applied topically twice daily 5% N-acetyl-glucosamine solution.

[8] = 5% cream, three weeks, one subject per value
[9] = 10% cream, three weeks, one subject per value
[10] = 2% solution, pH 6.5, oily and pruritic scalp
[11] = 5% in solution of water 4, ethanol 4, propylene glycol 2 parts, chronic Grover's Disease
[12] = 10% cream, four weeks, one subject per value
[13] = 0.1% cream, topical application for 8 to 12 months (Weiss et al., JAAD 1988)
[14] = 5% in solution, acute urticaria
[15] = 2% solution (water/ethanol/propylene glycol), pH 2.7, itchy scalp
[16] = 5% in oil-in-water cream, chronic Grover's Disease
[17] = 5% in solution, axillary itch due to antiperspirant
[18] = 5% in solution, chronic nummular eczema and pruritic dry skin

Question: For CC(=O)NC1CCSC1=O (racemic) [N-acetyl-DL-homocysteine thiolactone], which “increase in skin thickness” value [1, 8] is on record?
Answer: 89% and 21%

Question: And the “appearance of treated forearm” value ([1]; 5% cream, three weeks)?
Answer: more firm, smooth, plump and minimally wrinkled when lifted

Question: Which “increase in skin thickness” value ([1]; 10% cream, five weeks, one subject) does the source give for CC(=O)NC(Cc1c[nH]c2ccccc12)C(=O)O (racemic) [N-acetyl-DL-tryptophan] here?
Answer: 12%

Question: What about the “increase in skin thickness” value [1, 9] of the same molecule?
Answer: 11% and 21%

Question: What about the “appearance of treated forearm” value ([1]; 10% cream, five weeks) of the same molecule?
Answer: more firm, smooth, plump and minimally wrinkled when lifted

Question: What about the “appearance of treated forearm” value ([1]; 10% cream, three weeks) of the same molecule?
Answer: more firm, smooth, plump and minimally wrinkled when lifted

Question: Which results are given for CC(=O)N[C@@H](CCCCN)C(=O)O [N-acetyl-L-lysine]?
Answer: scalp itch a few minutes after topical application [2, 10]: disappeared completely; time scalp remained free of itch [2, 10]: 12 h

Question: With CC(=O)N[C@@H](CCC(N)=O)C(=O)O [N-acetyl-L-glutamine] as the molecule, how does the “severe itch a few minutes after topical application” value (from here on “severe itch a few minutes”) [2, 11] read?
Answer: disappeared completely

Question: And the “time lesions remained free of itch” value [2, 11]?
Answer: 24 h

Question: With CC(=O)N[C@@H](CCCNC(=N)N)C(=O)O [N-acetyl-L-arginine] as the molecule, how does the “increase in skin thickness” value [1, 12] read?
Answer: 32% and 22%

Question: What about the “appearance of treated forearm” value ([1]; 10% cream, four weeks) of the same molecule?
Answer: more firm, smooth, plump and minimally wrinkled when lifted

Question: Which “average increase in thickness of epidermis over the control” value ([3]; 8 subjects aged 58 to 81, vehicle control on opposite forearm) does the source give for CC(=O)N[C@@H](CS)C(=O)O [N-acetyl-L-cysteine] here?
Answer: 96%

Question: And the “increase in production of hyaluronic acid in papillary dermis over the control” value ([3]; all test sites)?
Answer: 47-227%

Question: And the “increase in skin thickness” value [1, 8]?
Answer: 14%

Question: And the “appearance of treated forearm” value ([1]; 5% cream, three weeks)?
Answer: more firm, smooth, plump and minimally wrinkled when lifted

Question: And the stability on storage [4]?
Answer: degrade under ordinary storage conditions

Question: With CC1=C(/C=C/C(C)=C/C=C/C(C)=C/C(=O)O)C(C)(C)CCC1 [tretinoin] as the molecule, how does the “effect on photodamaged skin” value ([5]; 0.05% in a cream, daily topical application (Kligman et al. 1986)) read?
Answer: improve photodamaged skin

Question: And the “effect on aging skin” value [5, 13]?
Answer: improve clinical signs of aging skin

Question: And the side effects [5, 13]?
Answer: burning sensation in the eyes and mild skin irritations

Question: And the “patients encountering dermatitis (side-effect)” value ([5]; 0.1%, daily topical application, 16 weeks (Weiss et al., JAMA 1988))?
Answer: 92%

Question: And the “effect on photoaged skin” value ([5]; 0.1%, daily topical application, 16 weeks, compared to vehicle alone (Weiss et al., JAMA 1988))?
Answer: improve photoaged skin

Question: With CC(=O)N[C@@H]1[C@@H](O)[C@H](O)[C@@H](CO)O[C@@H]1O [N-acetyl-glucosamine, N-Acetyl-α-D-glucosamine] as the molecule, how does the “severe itch a few minutes” value [2, 11] read?
Answer: disappeared completely

Question: What about the “time lesions remained free of itch” value [2, 11] of the same molecule?
Answer: 24 h

Question: And the “increase in skin thickness” value [1, 9]?
Answer: 37%

Question: What about the “appearance of treated forearm” value ([1]; 10% cream, three weeks) of the same molecule?
Answer: more firm, smooth, plump and minimally wrinkled when lifted

Question: What about the “effect on xerosis and dry skin” value [6] of the same molecule?
Answer: returned to normal-looking skin

Question: And the “effect on acne lesions” value [7]?
Answer: most lesions became less inflamed and gradually eradicated

Question: With CC(=O)N[C@H]1C(O)O[C@H](CO)[C@H](O)[C@@H]1O (stereo partly drawn) [N-acetyl-D-galactosamine] as the molecule, how does the “effect on urticarial lesions” value [2, 14] read?
Answer: concomitant disappearance of urticarial lesions

Question: And the “severe itch a few minutes” value [2, 14]?
Answer: disappeared completely

Question: What about the “time skin remained free of itch” value [2, 14] of the same molecule?
Answer: 24 h

Question: For COC(=O)[C@H](CS)NC(C)=O [N-acetyl-L-cysteine methyl ester], which “increase in skin thickness” value [1, 8] is on record?
Answer: 13% and 87%

Question: What about the “appearance of treated forearm” value ([1]; 5% cream, three weeks) of the same molecule?
Answer: more firm, smooth, plump and minimally wrinkled when lifted

Question: What about the “increase in skin thickness” value [1, 9] of the same molecule?
Answer: 26%

Question: And the “appearance of treated forearm” value ([1]; 10% cream, three weeks)?
Answer: more firm, smooth, plump and minimally wrinkled when lifted

Question: For CCOC(=O)[C@H](Cc1ccc(O)cc1)NC(C)=O [N-acetyl-L-tyrosine ethyl ester], which “increase in skin thickness” value [1, 12] is on record?
Answer: 11% and 34%

Question: What about the “appearance of treated forearm” value ([1]; 10% cream, four weeks) of the same molecule?
Answer: more firm, smooth, plump and minimally wrinkled when lifted

Question: Which “scalp itch a few minutes after topical application” value [2, 15] does the source give for CC(=O)N1CCCC1C(=O)O (racemic) [N-acetyl-DL-proline] here?
Answer: disappeared completely

Question: And the “time scalp remained free of itch” value [2, 15]?
Answer: 24 h

Question: And the “severe itch a few minutes” value [2, 16]?
Answer: disappeared completely

Question: And the “time lesions remained free of itch” value [2, 16]?
Answer: 12 h

Question: And the “itch within a few minutes after topical application” value [2, 17]?
Answer: disappeared completely

Question: What about the “time skin remained free of itch” value [2, 17] of the same molecule?
Answer: five

Question: And the “itch a few minutes after topical application” value [2, 18]?
Answer: disappeared completely

Question: What about the “time lesions remained free of itch” value [2, 18] of the same molecule?
Answer: 48 h
